In ChEMBL document CHEMBL1130766, “Phosphodiesterase inhibitory properties of losartan. Design and synthesis of new lead compounds” (Bioorg Med Chem Lett, 1998):

Tests used:
Phosphodiesterase 4 [1] = biological target: T1, Phosphodiesterase 4 (Homo sapiens, UniProt P27815+Q08499+Q07343+Q08493); experiment: Inhibitory effect in cAMP-specific Phosphodiesterase 4 (PDE 4) isolated from guinea pig ventricular tissue.; assay type: protein assay, Cavia porcellus; settings: target entry is the homologue from another species
Phosphodiesterase 3 [2] = biological target: T2, Phosphodiesterase 3 (Homo sapiens, UniProt Q14432+Q13370); experiment: Inhibition of guinea pig ventricular Phosphodiesterase 3 (PDE 3) at 200 uM; assay type: protein assay; settings: Cavia porcellus, target entry is the homologue from another species
Phosphodiesterase 3 [3] = biological target: T2, Phosphodiesterase 3; experiment: Inhibitory effect in cGMP-inhibited Phosphodiesterase 3 (PDE 3) isolated from guinea pig ventricular tissue.; assay type: protein assay, Cavia porcellus; settings: target entry is the homologue from another species
Phosphodiesterase 4 [4] = biological target: T1, Phosphodiesterase 4; experiment: Inhibition of guinea pig ventricular Phosphodiesterase 4 (PDE 4) at 200 uM; assay type: protein assay; settings: Cavia porcellus, target entry is the homologue from another species
Phosphodiesterase 3 [5] = biological target: T2, Phosphodiesterase 3; experiment: Inhibition of guinea pig ventricular Phosphodiesterase 3 (PDE 3); assay type: protein assay, Cavia porcellus; settings: target entry is the homologue from another species

Compound | IC50 (Phosphodiesterase 4 [1]) [µM] | inhibition (Phosphodiesterase 3 [2]) [%] | IC50 (Phosphodiesterase 3 [3]) [µM] | inhibition (Phosphodiesterase 4 [4]) [%] | IC50 (Phosphodiesterase 3 [5]) [µM]
CCN(Cc1ccccc1-c1ccccc1)c1nc2nc3ccccc3n2s1 | 48 | 41 | – | – | –
CCCCN(Cc1ccccc1-c1ccccc1)c1nc2c3c(ccc2s1)CCCC3 | 42 | 15 | – | – | –
CCCc1nc(SCc2ccc(-c3ccccc3-c3nn[nH]n3)cc2)c2cc(C)ccc2n1 | 3.8 | – | 2.4 | – | –
CCCCN(Cc1ccccc1-c1ccccc1)c1nc2nc3ccccc3n2s1 | 30 | 31 | – | – | –
CCN(Cc1ccccc1-n1ncnn1)c1nc2nc3ccccc3n2s1 | 107 | 15 | – | – | –
CCCCN(Cc1ccccc1-n1ncnn1)c1nc2nc3ccccc3n2s1 | – | 32 | – | 44 | –
CCCc1nc(SCc2ccc(-c3ccccc3-c3nn[nH]n3)cc2)c2cc(C)cc(C)c2n1 | 8.6 | – | 11 | – | –
CCN(Cc1ccccc1)c1nc2nc3ccccc3n2s1 | 32 | 12 | – | – | –
CCN(Cc1ccc(-c2ccccc2-n2ncnn2)cc1)c1nc2nc3ccccc3n2s1 | 74 | – | – | – | 125
CCCCc1nc(Cl)c(CO)n1Cc1ccc(-c2ccccc2-c2nnn[nH]2)cc1 [LOSARTAN] | – | – | – | – | 13
CCCCN(Cc1ccccc1)c1nc2nc3ccccc3n2s1 | 90 | 0 | – | – | –
CCCCN(Cc1ccc(-c2ccccc2-n2ncnn2)cc1)c1nc2nc3ccccc3n2s1 | – | 50 | – | 48 | –

Other lines, results leading:

IC50 (Phosphodiesterase 4 [1]) [µM] | inhibition (Phosphodiesterase 3 [2]) [%] | IC50 (Phosphodiesterase 3 [3]) [µM] | inhibition (Phosphodiesterase 4 [4]) [%] | IC50 (Phosphodiesterase 3 [5]) [µM] | Compound
3.3 | – | 7 | – | – | CCc1nc(SCc2ccc(-c3ccccc3-c3nn[nH]n3)cc2)c2ccccc2n1
21 | – | 24 | – | – | CCc1nc(NCc2ccc(-c3ccccc3-c3nn[nH]n3)cc2)c2ccccc2n1
2.9 | – | 8 | – | – | CCCCc1nc(SCc2ccc(-c3ccccc3-c3nn[nH]n3)cc2)c2ccccc2n1
3.8 | – | 6.8 | – | – | CCCc1nc(SCc2ccc(-c3ccccc3-c3nn[nH]n3)cc2)c2ccccc2n1
3.8 | – | 2.4 | – | – | CC(C)c1nc(SCc2ccc(-c3ccccc3-c3nn[nH]n3)cc2)c2ccccc2n1
14 | – | 5.8 | – | – | CCc1nc(OCc2ccc(-c3ccccc3-c3nn[nH]n3)cc2)c2ccccc2n1
7.6 | – | 16 | – | – | CCCCc1nc(NCc2ccc(-c3ccccc3-c3nn[nH]n3)cc2)c2ccccc2n1
7.9 | – | 5.4 | – | – | CCCCc1nc(OCc2ccc(-c3ccccc3-c3nn[nH]n3)cc2)c2ccccc2n1
15 | – | 4.8 | – | – | Cc1nc(SCc2ccc(-c3ccccc3-c3nn[nH]n3)cc2)c2ccccc2n1
